≈ marks a conversion by molar mass, not a printed value.
What was measured:
HEp-2 = test: Cytotoxicity against human HEp-2 cells assessed as inhibition of cell growth; type: functional; conditions: read-out: ED50 (the source's name)
Hyalomma lusitanicum = test: Anti-insecticidal activity against Hyalomma lusitanicum Koch larvae assessed as inhibition of larval growth; type: functional; conditions: for LC50: Hyalomma lusitanicum, read-out: LD50 (the source's name)
A2780 [1] = test: Cytotoxicity against human A2780 cells assessed as inhibition of cell growth incubated for 96 hrs by SRB assay; type: toxicity, cell-based; conditions: A2780, 96 h
DU-145 = test: Antiproliferative activity against human DU-145 cells assessed as reduction in cell viability incubated for 48 hrs by CytoX cell viability assay; type: functional, cell-based; conditions: DU-145, 48 h
K562 [2] = test: Antiproliferative activity against human K562 cells assessed as reduction in cell viability incubated for 48 hrs by CytoX cell viability assay; type: functional, cell-based; conditions: K562, 48 h
MCF7 [3] = test: Antiproliferative activity against human MCF7 cells assessed as reduction in cell viability incubated for 48 hrs by CytoX cell viability assay; type: functional, cell-based; conditions: MCF7, 48 h
HCT-15 = test: Antiproliferative activity against human HCT-15 cells assessed as reduction in cell viability incubated for 48 hrs by CytoX cell viability assay; type: functional, cell-based; conditions: HCT-15, 48 h
HeLa [4] = test: Antiproliferative activity against human HeLa cells assessed as reduction in cell viability incubated for 48 hrs by CytoX cell viability assay; type: functional, cell-based
MDA-MB-231 = test: Cytotoxicity against human MDA-MB-231 cells assessed as inhibition of cell growth incubated for 48 hrs by SRB assay; type: functional, cell-based; conditions: MDA-MB-231, 48 h
Plasmodium falciparum [5] = test: Antimalarial activity against chloroquine-sensitive Plasmodium falciparum D10 incubated for 48 hrs; type: functional, organism-based; conditions: D10, 48 h
Plasmodium falciparum [6] = test: Antimalarial activity against Sulfadoxine-sensitive Plasmodium falciparum HB3; type: functional, organism-based
Plasmodium falciparum [7] = test: Antimalarial activity against Sulfadoxine-sensitive Plasmodium falciparum D6; type: functional, organism-based
Plasmodium falciparum [8] = test: Antimalarial activity against Sulfadoxine-sensitive Plasmodium falciparum FCR3; type: functional, organism-based
Plasmodium falciparum [9] = test: Antimalarial activity against […] incubated for 48 hrs; type: functional, organism-based; conditions: K1, 48 h
Plasmodium falciparum [10] = test: Antimalarial activity against Sulfadoxine-resistant Plasmodium falciparum 3D7; type: functional, organism-based
Plasmodium falciparum [11] = test: Antimalarial activity against Sulfadoxine-resistant Plasmodium falciparum W2; type: functional, organism-based
PC-3 = test: Cytotoxicity against human PC-3 cells assessed as inhibition of cell growth incubated for 48 hrs by SRB assay; type: functional, cell-based; conditions: PC-3, 48 h
MCF7 [12] = test: Cytotoxicity against human MCF7 cells assessed as inhibition of cell growth incubated for 48 hrs by SRB assay; type: functional, cell-based; conditions: MCF7, 48 h
MG-63 [13] = test: Antiproliferative activity against human MG-63 cells assessed as reduction in cell viability by SRB assay; type: functional, cell-based
MG-63 [14] = test: Antiproliferative activity against human MG-63 cells assessed as inhibition of cell growth by MTT assay; type: functional, cell-based
NCI-H522 = test: Cytotoxicity against human NCI-H522 cells assessed as inhibition of cell growth incubated for 3 days; type: functional, cell-based; conditions: NCI-H522, 72 h
[15] = Cytotoxicity against human RPMI-8226/Dox40 cells assessed as inhibition of cell growth incubated for 3 days; type: functional, cell-based; conditions: RPMI-8226, 72 h
Aromatase [16] = biological target: T1, Aromatase (Homo sapiens, UniProt P11511); test: Inhibition of aromatase in human MCF-7aro cells using [1beta-3H] androstenedione as substrate at 10 uM incubated for 1 hrs relative to control; type: cell-based
T1 sequence (P11511 whole entry): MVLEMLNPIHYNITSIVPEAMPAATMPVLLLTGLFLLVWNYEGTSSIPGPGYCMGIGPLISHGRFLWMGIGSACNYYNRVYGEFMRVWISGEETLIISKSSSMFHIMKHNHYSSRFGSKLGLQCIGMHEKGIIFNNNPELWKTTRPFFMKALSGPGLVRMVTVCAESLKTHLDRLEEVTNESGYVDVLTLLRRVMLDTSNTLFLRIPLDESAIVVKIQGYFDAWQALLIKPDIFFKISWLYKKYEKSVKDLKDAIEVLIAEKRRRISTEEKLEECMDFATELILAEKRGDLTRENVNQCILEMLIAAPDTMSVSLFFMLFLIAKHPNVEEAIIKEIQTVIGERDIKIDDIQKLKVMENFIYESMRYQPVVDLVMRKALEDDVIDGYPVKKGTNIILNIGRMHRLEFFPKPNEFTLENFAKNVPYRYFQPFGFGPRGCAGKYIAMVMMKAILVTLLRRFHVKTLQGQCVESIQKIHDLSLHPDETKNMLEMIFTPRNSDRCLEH

Aromatase [17] = biological target: T1, Aromatase; test: Inhibition of aromatase in disrupted human MCF-7aro cells using [1beta-3H] androstenedione as substrate incubated for 1 hrs in the presence of NADPH
Aromatase [18] = biological target: T1, Aromatase; test: Inhibition of aromatase in human MCF-7aro cells using [1beta-3H] androstenedione as substrate incubated for 1 hrs; type: cell-based
A2780 [19] = test: Antiproliferative activity against human A2780 cells assessed as inhibition of cell proliferation incubated for 4 days by MTT assay; type: functional, cell-based; conditions: A2780, 96 h
NCI-H1299 = test: Antiproliferative activity against human NCI-H1299 cells assessed as inhibition of cell proliferation incubated for 4 days by MTT assay; type: functional, cell-based; conditions: NCI-H1299, 96 h
HT-29 = test: Antiproliferative activity against human HT-29 cells assessed as inhibition of cell proliferation incubated for 4 days by MTT assay; type: functional, cell-based; conditions: HT-29, 96 h
HeLa [20] = test: Antiproliferative activity against human HeLa cells assessed as inhibition of cell proliferation incubated for 4 days by MTT assay; type: functional, cell-based; conditions: 96 h
MCF7 [21] = test: Antiproliferative activity against human MCF7 cells assessed as inhibition of cell proliferation incubated for 4 days by MTT assay; type: functional, cell-based; conditions: MCF7, 96 h
Malme-3M = test: Antiproliferative activity against human Malme-3M cells assessed as inhibition of cell proliferation incubated for 4 days by MTT assay; type: functional, cell-based; conditions: 96 h
K562 [22] = test: Antiproliferative activity against human K562/C1000 cells assessed as inhibition of cell proliferation incubated for 4 days by MTT assay; type: functional, cell-based; conditions: K562, 96 h

C[C@@H]1C[C@H]2OC(=O)[C@@H](C)[C@H]2[C@H](O)[C@]2(C)C(=O)C3OC3[C@@H]12 (stereo partly specified)
EC50 (HEp-2): 0.11 µg/mL (≈ 0.000392 mM)

CC1=C2CC3(OC3(C)C)C(=O)C[C@@]2(C)CCC1 (stereo partly specified)
LD90 (Hyalomma lusitanicum): 6.33 mg/mL | LC50 (Hyalomma lusitanicum): 4140 µg/mL (≈ 17.7 mM)

CC1=CC[C@]23O[C@@]2(C)CC[C@@H]2[C@H](OC(=O)[C@H]2CN2CCNCC2)[C@@H]13
IC50 (A2780 [1]): 3.75 µM

Cc1cc(=O)c2c(OC[C@H]3CO3)cc(OC[C@@H]3CO3)cc2o1
IC50 (DU-145): 628 µM | IC50 (K562 [2]): 0.04 µM | IC50 (MCF7 [3]): 1.88 µM | IC50 (HCT-15): 9.59 µM | IC50 (HeLa [4]): 1.77 µM

C[C@@H]1OC(=O)C[C@H]2[C@@H]3CC[C@]45O[C@H]4C(=O)CC[C@]5(C)[C@H]3CC[C@]12C
IC50 (MDA-MB-231): 3.6 µM

CC[C@@]1(O)C(=O)OCc2c1cc1n(c2=O)Cc2cc3ccccc3nc2-1 [CAMPTOTHECIN]
IC50 (DU-145): 1.99 µM | IC50 (K562 [2]): 2.69 µM | IC50 (MCF7 [3]): 2.8 µM | IC50 (HCT-15): 1.59 µM | IC50 (HeLa [4]): 6 µM

Cc1cccc([C@]23CC[C@](c4cccc(C)c4)(OO2)[C@H]2O[C@H]23)c1
IC50 (Plasmodium falciparum [5]): 0.08 µM | IC50 (Plasmodium falciparum [6]): 0.01 µM | IC50 (Plasmodium falciparum [7]): 0.01 µM | IC50 (Plasmodium falciparum [8]): 0.01 µM | IC50 (Plasmodium falciparum [9]): 0.08 µM | IC50 (Plasmodium falciparum [10]): > 10 µM | IC50 (Plasmodium falciparum [11]): > 10 µM

CC(C)=C1C/C=C(\C)CCCC2(C)OC2C1=O (stereo unspecified)
LD90 (Hyalomma lusitanicum): 2.98 mg/mL | LC50 (Hyalomma lusitanicum): 2320 µg/mL (≈ 9.9 mM)

C[C@]12CC[C@H]3[C@@H](C=CC4=CC(=O)[C@@H]5O[C@@H]5[C@@]43C)[C@@H]1CC(=O)OC2
IC50 (PC-3): > 100 µM | IC50 (MCF7 [12]): > 100 µM | IC50 (MDA-MB-231): 16.4 µM

C[C@@H]1CC[C@@H]([C@]2(C)CO2)[C@H](OCc2ccccc2)C1
IC50 (MG-63 [13]): 100 µM | IC50 (MG-63 [14]): 100 µM

C[C@]1([C@H]2Cc3ccc4c(c3O2)-n2cc(C(=O)O)c(=O)c3cc(F)c(N5CC[C@H](N)C5)c(c32)O4)CO1
IC50 (NCI-H522): 0.07 µM | IC50 [15]: 0.05 µM

Cc1cc(=O)c2c(O)cc(OC[C@@H]3CO3)cc2o1
IC50 (DU-145): 7.58 µM | IC50 (K562 [2]): 8.03 µM | IC50 (MCF7 [3]): 36.2 µM | IC50 (HCT-15): 17.5 µM | IC50 (HeLa [4]): 11.9 µM

Cc1cc(=O)c2c(O)cc(OCC3CO3)cc2o1 (stereo unspecified)
IC50 (DU-145): 20.9 µM | IC50 (K562 [2]): 143 µM | IC50 (MCF7 [3]): 13.6 µM | IC50 (HCT-15): 18.3 µM | IC50 (HeLa [4]): 17.7 µM

C[C@]12CC[C@H]3[C@@H](CC[C@@]45O[C@@H]4CCC[C@]35C)[C@@H]1CCC2=O
inhibition at 10 µM (Aromatase [16]): 52.2% | IC50 (Aromatase [17]): 1.2 µM | IC50 (Aromatase [18]): 8.5 µM

C[C@@H]1CC[C@@H]([C@@]2(C)CO2)[C@H](OCc2ccccc2)C1
IC50 (MG-63 [13]): 100 µM | IC50 (MG-63 [14]): 100 µM

C[C@]12CC[C@H]3[C@@H](C[C@@H]4O[C@@]45C[C@@H](O)CC[C@]35C)[C@@H]1CC(=O)OC2
IC50 (MDA-MB-231): 39.8 µM

Cc1cc(=O)c2c(O)cc(OC[C@H]3CO3)cc2o1
IC50 (DU-145): 15.2 µM | IC50 (K562 [2]): 9.74 µM | IC50 (MCF7 [3]): 22.9 µM | IC50 (HCT-15): 27.2 µM | IC50 (HeLa [4]): 16.7 µM

CC1=CCC[C@]2(C)CC(=O)C3(C[C@@H]12)OC3(C)C (stereo partly specified)
LD90 (Hyalomma lusitanicum): 1.91 mg/mL | LC50 (Hyalomma lusitanicum): 230 µg/mL (≈ 0.981 mM)

CC1(C)NC(=O)[C@@H](CCCCCC(=O)[C@@H]2CO2)NC(=O)CC2CCCN2C(=O)[C@@H](Cc2ccccc2)NC1=O (stereo partly specified)
IC50 (A2780 [19]): 0.00036 µM | IC50 (NCI-H1299): 0.004 µM | IC50 (HT-29): 0.0043 µM | IC50 (HeLa [20]): 0.014 µM | IC50 (MCF7 [21]): 0.0053 µM | IC50 (Malme-3M): 0.045 µM | IC50 (K562 [22]): 0.00076 µM
